Results as given in ChEMBL document CHEMBL1141380 (J Med Chem, 2007).
Converted amounts (≈) assume the structure as drawn. Each block holds one compound with its values, some of them ahead of it.

Experiments:
[1] = Clearance in iv dosed rat; format: ADME, organism-based; conditions: in vivo
[2] = target: Vascular endothelial growth factor receptor 2 (Homo sapiens, UniProt P35968)
Description: Inhibition of KDR by HTRF assay

[3] = target: High affinity nerve growth factor receptor (Homo sapiens, UniProt P04629); assay: Inhibition of TrkA
[4] = target: T1, Angiopoietin-1 receptor (Homo sapiens, UniProt Q02763); assay: Inhibition of Tie2 by HTRF assay
T1 sequence (Q02763 whole entry): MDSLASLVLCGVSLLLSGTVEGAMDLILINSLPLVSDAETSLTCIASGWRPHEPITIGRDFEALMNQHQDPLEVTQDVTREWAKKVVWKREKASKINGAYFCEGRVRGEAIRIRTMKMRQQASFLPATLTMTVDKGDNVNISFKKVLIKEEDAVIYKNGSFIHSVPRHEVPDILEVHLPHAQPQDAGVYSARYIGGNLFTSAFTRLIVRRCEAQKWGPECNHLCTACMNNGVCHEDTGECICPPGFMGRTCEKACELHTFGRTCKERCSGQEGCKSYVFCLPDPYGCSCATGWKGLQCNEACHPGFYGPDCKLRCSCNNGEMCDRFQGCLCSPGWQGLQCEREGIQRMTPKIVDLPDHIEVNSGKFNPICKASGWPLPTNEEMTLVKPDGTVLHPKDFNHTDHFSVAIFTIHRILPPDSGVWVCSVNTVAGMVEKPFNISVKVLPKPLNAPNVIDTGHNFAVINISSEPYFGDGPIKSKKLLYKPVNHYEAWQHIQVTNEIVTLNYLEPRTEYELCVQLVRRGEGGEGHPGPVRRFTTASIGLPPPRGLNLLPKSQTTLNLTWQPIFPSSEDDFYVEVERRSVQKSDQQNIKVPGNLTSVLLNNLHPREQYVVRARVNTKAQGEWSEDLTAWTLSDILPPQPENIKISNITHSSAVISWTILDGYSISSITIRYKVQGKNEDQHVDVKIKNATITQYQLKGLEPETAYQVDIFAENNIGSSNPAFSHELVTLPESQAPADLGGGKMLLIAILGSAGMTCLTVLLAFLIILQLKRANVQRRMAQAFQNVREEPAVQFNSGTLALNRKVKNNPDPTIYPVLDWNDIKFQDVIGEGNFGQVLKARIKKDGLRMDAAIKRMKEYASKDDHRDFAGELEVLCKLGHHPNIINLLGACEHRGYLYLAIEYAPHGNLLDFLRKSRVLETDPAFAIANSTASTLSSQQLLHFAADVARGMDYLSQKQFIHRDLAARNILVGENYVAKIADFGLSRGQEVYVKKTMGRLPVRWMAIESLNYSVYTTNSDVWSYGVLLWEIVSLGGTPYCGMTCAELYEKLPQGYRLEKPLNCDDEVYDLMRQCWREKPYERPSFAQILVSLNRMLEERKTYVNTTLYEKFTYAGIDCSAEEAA

[5] = target: T1, Angiopoietin-1 receptor; assay: Inhibition of angiopoietin-1-stimulated Tie2 phosphorylation in EA.hy926 cells; format: functional, cell-based
[6] = target: Platelet-derived growth factor receptor beta (Homo sapiens, UniProt P09619); assay: Inhibition of PDGFR
[7] = target: Macrophage colony-stimulating factor 1 receptor (Homo sapiens, UniProt P07333); assay: Inhibition of c-fms
[8] = target: Proto-oncogene tyrosine-protein kinase receptor Ret (Homo sapiens, UniProt P07949); assay: Inhibition of RET
[9] = target: Insulin-like growth factor 1 receptor (Homo sapiens, UniProt P08069); assay: Inhibition of IGFR1
[10] = target: Ephrin type-B receptor 4 (Homo sapiens, UniProt P54760); assay: Inhibition of EPHB4
[11] = target: Tyrosine-protein kinase SYK (Homo sapiens, UniProt P43405); assay: Inhibition of SYK
[12] = target: Tyrosine-protein kinase ZAP-70 (Homo sapiens, UniProt P43403); assay: Inhibition of ZAP70
[13] = target: Tyrosine-protein kinase JAK3 (Homo sapiens, UniProt P52333); assay: Inhibition of Jak3
[14] = target: Tyrosine-protein kinase CSK (Homo sapiens, UniProt P41240); assay: Inhibition of CSK
[15] = target: Proto-oncogene tyrosine-protein kinase Src (Homo sapiens, UniProt P12931); assay: inhibition of Src
Proto-oncogene tyrosine-protein kinase Src, sequence (P12931 2-536 limits assumed): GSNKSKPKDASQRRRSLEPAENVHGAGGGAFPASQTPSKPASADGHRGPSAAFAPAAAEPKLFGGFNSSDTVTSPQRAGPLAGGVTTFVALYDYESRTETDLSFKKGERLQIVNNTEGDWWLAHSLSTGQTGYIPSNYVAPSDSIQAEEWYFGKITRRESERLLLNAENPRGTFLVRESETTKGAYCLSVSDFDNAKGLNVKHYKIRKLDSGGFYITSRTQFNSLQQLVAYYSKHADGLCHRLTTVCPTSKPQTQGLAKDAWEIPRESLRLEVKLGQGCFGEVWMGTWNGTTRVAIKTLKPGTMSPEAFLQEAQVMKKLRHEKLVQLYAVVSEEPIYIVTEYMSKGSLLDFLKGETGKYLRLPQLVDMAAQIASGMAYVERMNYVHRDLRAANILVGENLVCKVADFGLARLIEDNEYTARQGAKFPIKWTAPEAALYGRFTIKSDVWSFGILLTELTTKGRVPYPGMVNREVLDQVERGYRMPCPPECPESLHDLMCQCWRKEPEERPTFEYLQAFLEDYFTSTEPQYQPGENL

[16] = target: Tyrosine-protein kinase Lck (Homo sapiens, UniProt P06239); assay: Inhibition of Lck
[17] = target: Tyrosine-protein kinase Lyn (Homo sapiens, UniProt P07948); assay: Inhibition of Lyn
Tyrosine-protein kinase Lyn, sequence (P07948 whole entry): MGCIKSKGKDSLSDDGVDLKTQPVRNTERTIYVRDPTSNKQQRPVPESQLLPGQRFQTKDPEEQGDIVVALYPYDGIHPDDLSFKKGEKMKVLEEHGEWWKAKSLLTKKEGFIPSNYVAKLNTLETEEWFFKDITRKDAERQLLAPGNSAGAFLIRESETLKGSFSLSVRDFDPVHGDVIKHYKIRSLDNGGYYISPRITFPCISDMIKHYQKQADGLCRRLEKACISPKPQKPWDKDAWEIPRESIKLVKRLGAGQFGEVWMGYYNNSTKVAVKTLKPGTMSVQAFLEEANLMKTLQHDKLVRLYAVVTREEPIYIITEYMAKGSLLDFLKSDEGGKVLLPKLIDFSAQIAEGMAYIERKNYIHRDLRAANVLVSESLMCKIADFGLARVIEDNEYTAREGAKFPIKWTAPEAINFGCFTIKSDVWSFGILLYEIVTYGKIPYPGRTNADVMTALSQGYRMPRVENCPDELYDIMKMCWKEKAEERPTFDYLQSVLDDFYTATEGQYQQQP

[18] = target: Tyrosine-protein kinase Fgr (Homo sapiens, UniProt P09769); assay: Inhibition of Fgr
[19] = target: Tyrosine-protein kinase ABL1 (Homo sapiens, UniProt P00519); assay: Inhibition of Abl
[20] = target: Tyrosine-protein kinase ITK/TSK (Homo sapiens, UniProt Q08881); assay: Inhibition of Itk
[21] = target: Mitogen-activated protein kinase 14 (Homo sapiens, UniProt Q16539); assay: Inhibition of p38alpha
Mitogen-activated protein kinase 14, sequence (Q16539 whole entry): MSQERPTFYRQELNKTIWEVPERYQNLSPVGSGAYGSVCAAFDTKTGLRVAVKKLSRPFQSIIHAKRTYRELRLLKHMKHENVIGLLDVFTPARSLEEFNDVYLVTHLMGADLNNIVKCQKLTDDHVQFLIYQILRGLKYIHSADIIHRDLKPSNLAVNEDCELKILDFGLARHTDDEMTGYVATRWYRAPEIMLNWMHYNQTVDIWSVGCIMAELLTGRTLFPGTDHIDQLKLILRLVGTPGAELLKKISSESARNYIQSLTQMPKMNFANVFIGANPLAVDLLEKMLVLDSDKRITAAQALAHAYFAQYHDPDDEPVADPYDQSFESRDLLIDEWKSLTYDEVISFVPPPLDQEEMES

[22] = target: Mitogen-activated protein kinase 10 (Homo sapiens, UniProt P53779); assay: inhibition of JNK3
[23] = target: Cyclin-dependent kinase 5 (Homo sapiens, UniProt Q00535); assay: Inhibition of CDK5
[24] = target: Aurora kinase A (Homo sapiens, UniProt O14965); assay: Inhibition of AurA
[25] = target: RAC-alpha serine/threonine-protein kinase (Homo sapiens, UniProt P31749); assay: Inhibition of PKBalpha
[26] = Half life in Sprague-Dawley rat at 1 mg/kg, iv; format: ADME, organism-based; parameters: dose 1 mg/kg, route intravenous; conditions: in vivo
[27] = Clearance in Sprague-Dawley rat at 1 mg/kg, iv; format: ADME, organism-based; parameters: dose 1 mg/kg, route intravenous; conditions: in vivo
[28] = Volume of distribution in Sprague-Dawley rat at 1 mg/kg, iv; format: ADME, organism-based; parameters: dose 1 mg/kg, route intravenous; conditions: in vivo, read-out: Vss
[29] = Oral bioavailability in Sprague-Dawley rat at 10 mg/kg, po; format: ADME, organism-based; conditions: in vivo
[30] = Cmax in Sprague-Dawley rat at 10 mg/kg, po; format: ADME, organism-based; parameters: dose 10 mg/kg, route oral; conditions: in vivo
[31] = AUC (0-infinity) in Sprague-Dawley rat at 10 mg/kg, po; format: ADME, organism-based; parameters: time infinity, dose 10 mg/kg, route oral; conditions: plasma
[32] = Plasma protein binding in rat; format: ADME, cell-free; conditions: read-out: PPB (converted)
[33] = Plasma protein binding in mouse; format: ADME, cell-free; conditions: read-out: PPB (converted)
[34] = Plasma concentration in CD1 NU/NU mouse at 100 mg/kg after 3 hrs; format: ADME, organism-based; parameters: dose 100 mg/kg
[35] = target: Angiopoietin-1 receptor (Mus musculus) (UniProt Q02858); assay: Inhibition of angiopoietin-1-induced Tie2 phosphorylation in CD1 NU/NU mouse at 100 mg/kg after 3 hrs; format: functional, organism-based; parameters: dose 100 mg/kg
Angiopoietin-1 receptor (Mus musculus), sequence (Q02858 whole entry): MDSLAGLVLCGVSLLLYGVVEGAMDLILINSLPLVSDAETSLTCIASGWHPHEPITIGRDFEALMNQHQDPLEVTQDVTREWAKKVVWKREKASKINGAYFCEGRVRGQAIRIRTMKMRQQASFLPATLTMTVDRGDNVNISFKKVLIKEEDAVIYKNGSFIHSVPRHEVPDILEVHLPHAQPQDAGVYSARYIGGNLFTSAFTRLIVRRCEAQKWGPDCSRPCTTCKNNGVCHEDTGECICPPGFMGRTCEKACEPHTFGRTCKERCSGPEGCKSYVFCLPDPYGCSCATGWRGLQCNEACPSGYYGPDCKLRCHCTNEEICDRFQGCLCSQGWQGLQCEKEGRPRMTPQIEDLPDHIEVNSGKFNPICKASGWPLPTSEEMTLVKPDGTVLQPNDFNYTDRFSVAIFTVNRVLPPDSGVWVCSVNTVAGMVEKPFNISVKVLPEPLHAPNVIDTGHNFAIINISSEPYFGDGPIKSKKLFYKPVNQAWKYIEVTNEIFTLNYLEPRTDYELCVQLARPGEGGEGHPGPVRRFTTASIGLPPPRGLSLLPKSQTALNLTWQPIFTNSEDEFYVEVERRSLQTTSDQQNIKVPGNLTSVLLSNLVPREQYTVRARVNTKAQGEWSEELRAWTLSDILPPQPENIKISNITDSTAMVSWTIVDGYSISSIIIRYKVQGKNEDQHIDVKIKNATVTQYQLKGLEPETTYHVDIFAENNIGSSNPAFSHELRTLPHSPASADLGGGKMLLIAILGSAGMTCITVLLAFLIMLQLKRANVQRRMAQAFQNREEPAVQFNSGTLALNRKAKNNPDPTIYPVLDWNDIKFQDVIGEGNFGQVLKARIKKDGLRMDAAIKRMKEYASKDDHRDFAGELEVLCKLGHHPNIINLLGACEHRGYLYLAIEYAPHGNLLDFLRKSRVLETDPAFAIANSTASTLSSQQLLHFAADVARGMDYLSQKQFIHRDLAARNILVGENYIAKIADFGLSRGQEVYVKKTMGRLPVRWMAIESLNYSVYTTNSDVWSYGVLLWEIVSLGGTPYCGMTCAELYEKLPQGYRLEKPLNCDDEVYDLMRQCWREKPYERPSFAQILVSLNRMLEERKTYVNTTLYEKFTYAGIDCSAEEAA

[36] = target: Angiopoietin-1 receptor (Mus musculus) (UniProt Q02858); assay: Inhibition of angiopoietin-1-induced Tie2 phosphorylation in CD1 NU/NU mouse at 100 mg/kg after 8 hrs; format: functional, organism-based; parameters: dose 100 mg/kg
[37] = Plasma concentration in CD1 NU/NU mouse at 100 mg/kg after 8 hrs; format: ADME, organism-based; parameters: dose 100 mg/kg
[38] = Plasma concentration in CD1 NU/NU mouse at 100 mg/kg after 12 hrs; format: ADME, organism-based; parameters: dose 100 mg/kg
[39] = Tmax in Sprague-Dawley rat at 10 mg/kg, po; format: ADME, organism-based; parameters: dose 10 mg/kg, route oral; conditions: in vivo
[40] = Dissociation constant, pKa of the compound; format: physicochemical
[41] = Solubility in 0.01N HCl; format: physicochemical
[42] = Solubility in simulated intestinal fluid at pH 6.8; format: physicochemical
[43] = Solubility in phosphate buffer at pH 7.0; format: physicochemical
[44] = target: Mast/stem cell growth factor receptor Kit (Homo sapiens, UniProt P10721); assay: Inhibition of cKit
[45] = Mean residence time in rat; format: ADME, organism-based; conditions: in vivo
[46] = target: Vascular endothelial growth factor receptor 2 and tyrosine-protein kinase TIE-2 (KDR and TIE2) (Homo sapiens) (UniProt P35968+Q02763); assay: Selectivity for Tie2 over KDR; format: protein assay
Vascular endothelial growth factor receptor 2 and tyrosine-protein kinase TIE-2 (KDR and TIE2) (Homo sapiens), sequence (P35968 whole entry, looked up): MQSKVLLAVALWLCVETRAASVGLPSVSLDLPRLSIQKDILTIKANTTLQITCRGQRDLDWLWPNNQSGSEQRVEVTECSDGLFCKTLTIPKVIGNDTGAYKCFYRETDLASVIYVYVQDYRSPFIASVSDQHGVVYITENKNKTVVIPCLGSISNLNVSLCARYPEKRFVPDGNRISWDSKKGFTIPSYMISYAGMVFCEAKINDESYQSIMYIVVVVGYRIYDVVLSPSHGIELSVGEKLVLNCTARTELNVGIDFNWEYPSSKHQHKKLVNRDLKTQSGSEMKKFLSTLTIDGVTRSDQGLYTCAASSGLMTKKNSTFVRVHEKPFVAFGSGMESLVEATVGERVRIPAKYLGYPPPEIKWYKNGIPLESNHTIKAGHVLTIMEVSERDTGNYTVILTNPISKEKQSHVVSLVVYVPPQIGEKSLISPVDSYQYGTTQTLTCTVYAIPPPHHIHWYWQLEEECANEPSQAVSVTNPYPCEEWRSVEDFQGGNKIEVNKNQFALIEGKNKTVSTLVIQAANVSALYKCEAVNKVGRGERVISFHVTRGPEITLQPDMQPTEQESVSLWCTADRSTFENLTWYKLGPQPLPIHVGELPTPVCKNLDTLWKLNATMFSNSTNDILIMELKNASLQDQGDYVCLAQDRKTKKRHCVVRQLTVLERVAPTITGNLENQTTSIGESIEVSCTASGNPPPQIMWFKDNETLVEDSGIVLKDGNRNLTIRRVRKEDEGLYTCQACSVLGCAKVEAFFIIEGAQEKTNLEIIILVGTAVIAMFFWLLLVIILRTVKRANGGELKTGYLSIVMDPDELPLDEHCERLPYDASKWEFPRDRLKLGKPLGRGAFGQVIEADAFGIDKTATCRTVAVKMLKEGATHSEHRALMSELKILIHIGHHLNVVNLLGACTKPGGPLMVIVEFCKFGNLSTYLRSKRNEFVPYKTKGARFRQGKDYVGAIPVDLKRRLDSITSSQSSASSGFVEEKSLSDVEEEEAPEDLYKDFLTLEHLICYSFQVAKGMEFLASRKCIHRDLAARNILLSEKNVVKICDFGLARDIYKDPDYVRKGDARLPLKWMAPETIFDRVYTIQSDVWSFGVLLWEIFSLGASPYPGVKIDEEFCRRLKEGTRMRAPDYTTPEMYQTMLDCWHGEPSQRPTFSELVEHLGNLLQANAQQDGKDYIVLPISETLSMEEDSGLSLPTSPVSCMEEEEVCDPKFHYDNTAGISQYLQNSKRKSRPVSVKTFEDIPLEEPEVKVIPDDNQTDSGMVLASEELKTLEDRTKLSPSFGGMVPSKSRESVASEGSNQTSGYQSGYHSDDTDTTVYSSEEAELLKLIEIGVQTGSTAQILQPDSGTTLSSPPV
Vascular endothelial growth factor receptor 2 and tyrosine-protein kinase TIE-2 (KDR and TIE2) (Homo sapiens), sequence (Q02763 whole entry, looked up): as the sequence (Q02763 whole entry) above

Vascular endothelial growth factor receptor 2, sequence (P35968 whole entry): as the sequence (P35968 whole entry, looked up) above

SMILES: CNc1ncnc(-c2cccnc2Oc2ccc(F)c(C(=O)Nc3cc(C(C)C)ccc3N(C)CCCN(C)C)c2)n1
clearance [1]: 70 mL/min/kg | IC50 [2]: > 8000 nM

SMILES: CNc1cc(-c2cccnc2Oc2cc(C(=O)Nc3cc(C4CCCCC4)ccc3OC)ccc2C)ccn1
clearance [1]: 98.3 mL/min/kg | IC50 [2]: > 25000 nM

SMILES: CNc1ncnc(-c2cccnc2Oc2ccc(F)c(C(=O)Nc3cc(C(F)(F)F)ccc3N(C)CCCN(C)C)c2)n1
IC50 [3]: 8.3 µM | IC50 [4]: 30 nM | IC50 [5]: 62 nM | clearance [1]: 21.7 mL/min/kg | IC50 [6]: 1940 nM | IC50 [7]: 25 µM | IC50 [8]: 8.3 µM | IC50 [9]: 927 nM | IC50 [10]: 8.3 µM | IC50 [11]: 25 µM | IC50 [12]: 25 µM | IC50 [13]: 25 µM | IC50 [14]: 25 µM | IC50 [15]: 5.75 µM | IC50 [16]: 1100 nM | IC50 [17]: 4.9 µM | IC50 [18]: 8.3 µM | IC50 [19]: 1280 nM | IC50 [20]: 25 µM | IC50 [21]: 3.7 µM | IC50 [22]: 40 µM | IC50 [23]: 100 µM | IC50 [24]: 25 µM | IC50 [25]: 100 µM | half-life [26]: 96 min | clearance [27]: 21.7 mL/min/kg | Vd [28]: 2.56 L/kg | bioavailability [29]: 31% | Cmax [30]: 520 ng/mL | AUC(0-inf) [31]: 2640 ng·h/mL | fraction unbound [32]: 0.07 | fraction unbound [33]: 0.02 | concentration at 3 h [34]: 3.97 µM | inhibition [35]: 94% | inhibition [36]: 25% | concentration at 8 h [37]: 3.03 µM | concentration at 12 h [38]: 1590 nM | Tmax [39]: 2 h | pKa [40]: 9.5 | solubility [41]: 1320 µg/mL (≈ 2210 µM) | solubility [42]: 340 µg/mL (≈ 568 µM) | solubility [43]: 44 µg/mL (≈ 73.5 µM) | IC50 [2]: 7800 nM

SMILES: COc1ccc(C2CCCCC2)cc1NC(=O)c1ccc(C)c(Oc2ncccc2-c2ncnc3cc(OC)c(OC)cc23)c1
IC50 [4]: > 25000 nM | IC50 [2]: > 25000 nM

SMILES: CNc1ncnc(-c2cccnc2Oc2cc(C(=O)Nc3cc(C4CCCCC4)ccc3OC)ccc2C)n1
IC50 [4]: 22 nM | IC50 [5]: 61 nM | clearance [1]: 12.8 mL/min/kg | MRT [45]: 28.2 min | IC50 [2]: > 25000 nM

SMILES: CNc1nccc(-c2cccnc2Oc2cccc(C(=O)Nc3cc(C(F)(F)F)ccc3N3CCCCC3)c2)n1
IC50 [4]: 99 nM | IC50 [5]: 368 nM | clearance [1]: 54 mL/min/kg | IC50 [2]: > 8000 nM

SMILES: O=C(Nc1ccc(Oc2ccccc2)cc1)c1cccnc1NCc1ccncc1
IC50 [4]: ≥ 25000 nM

SMILES: Cc1ccc(C(=O)Nc2cc(C(F)(F)F)ccc2N2CCCCC2)cc1Nc1ncccc1-c1ccncn1
IC50 [4]: 181 nM | Selectivity ratio [46]: > 100 | IC50 [2]: > 25000 nM

SMILES: CNc1ncnc(-c2cccnc2Oc2ccc(F)c(C(=O)Nc3cc(C(F)(F)F)ccc3N3CCCCC3)c2)n1
IC50 [2]: > 25000 nM

SMILES: CNc1ncnc(-c2cccnc2Oc2ccc(F)c(C(=O)Nc3cc(C4CC4)ccc3N(C)CCCN(C)C)c2)n1
IC50 [4]: 13 nM | IC50 [5]: 39 nM | clearance [1]: 45.5 mL/min/kg | IC50 [2]: > 25000 nM

SMILES: COc1ccc(C2CCCCC2)cc1NC(=O)c1ccc(C)c(Oc2ncccc2-c2ccnc3ccccc23)c1
IC50 [4]: > 25000 nM | IC50 [2]: > 25000 nM

SMILES: CNc1nccc(-c2cccnc2Oc2ccc(F)c(C(=O)Nc3cc(C(F)(F)F)ccc3N3CCCCC3)c2)n1
IC50 [4]: 40 nM | IC50 [5]: 244 nM | clearance [1]: 5.67 mL/min/kg | Selectivity ratio [46]: > 500 | bioavailability [29]: 0.3% | IC50 [2]: > 25000 nM

SMILES: Cc1ccc(C(=O)Nc2cc(C(F)(F)F)ccc2N2CCOCC2)cc1Oc1ncccc1-c1ccncn1
IC50 [2]: > 25000 nM

Next, values leading:

IC50 [2]: 1300 nM
SMILES: Cc1ccc(C(=O)Nc2cc(C(F)(F)F)ccc2N2CCCCC2)cc1Oc1ncccc1-c1ccncn1

IC50 [10]: < 0.025 µM | IC50 [15]: < 0.025 µM | IC50 [17]: < 0.025 µM | IC50 [21]: < 0.025 µM | IC50 [44]: < 25 nM | IC50 [2]: 4 nM
SMILES: Cc1ccc(C(=O)Nc2cccc(C(F)(F)F)c2)cc1Nc1ncccc1-c1ccncn1

IC50 [4]: 10 nM | IC50 [5]: 38 nM | IC50 [2]: 97 nM
SMILES: CNc1ncnc(-c2cccnc2Oc2cc(C(=O)Nc3cccc(C(F)(F)F)c3)ccc2C)n1

solubility [41]: 5 µg/mL (≈ 11.1 µM) | IC50 [2]: 705 nM
SMILES: Cc1ccc(C(=O)Nc2ccc(C(F)(F)F)cc2)cc1Oc1ncccc1-c1ccncn1

clearance [1]: 25.6 mL/min/kg | IC50 [2]: 2000 nM
SMILES: CNc1nccc(-c2cccnc2Oc2cc(C(=O)Nc3cc(C(F)(F)F)ccc3N3CCCCC3)ccc2F)n1

IC50 [4]: 59 nM | IC50 [5]: 140 nM | clearance [1]: 15.3 mL/min/kg | IC50 [2]: 4000 nM
SMILES: CNc1ncnc(-c2cccnc2Oc2cc(C(=O)Nc3cc(C(F)(F)F)ccc3N(C)CCCN(C)C)ccc2C)n1

IC50 [2]: 461 nM
SMILES: CNc1nccc(-c2cccnc2Oc2cc(C(=O)Nc3cc(C(F)(F)F)ccc3N3CCCCC3)ccc2C)n1

IC50 [2]: 310 nM
SMILES: CNc1nccc(-c2cccnc2Oc2cc(C(=O)Nc3cc(C(F)(F)F)ccc3N3CCOCC3)ccc2C)n1

IC50 [4]: 388 nM | IC50 [2]: 2600 nM
SMILES: CNc1nccc(-c2cc(C)cnc2Oc2cccc(C(=O)Nc3cc(C(F)(F)F)ccc3N3CCCCC3)c2C)n1

IC50 [2]: 59 nM
SMILES: Cc1ccc(C(=O)Nc2cccc(C(F)(F)F)c2)cc1Oc1ncccc1-c1ccncn1

IC50 [2]: 58 nM
SMILES: COc1ccc(C(F)(F)F)cc1NC(=O)c1ccc(C)c(Nc2ncccc2-c2ccncn2)c1

IC50 [2]: 435 nM
SMILES: Cc1ccc(C(=O)Nc2ccccc2)cc1Nc1ncccc1-c1ccncn1

clearance [1]: 12 mL/min/kg | bioavailability [29]: 32% | IC50 [2]: 46 nM
SMILES: CNc1nccc(-c2cccnc2Oc2ccc(F)c(C(=O)Nc3cc(C(F)(F)F)ccc3N(C)CCCN(C)C)c2)n1

IC50 [2]: 100 nM
SMILES: COc1ccc(C(F)(F)F)cc1NC(=O)c1ccc(C)c(Oc2ncccc2-c2ccncn2)c1

IC50 [4]: 85 nM | IC50 [2]: 38 nM
SMILES: COc1cc(Nc2ncnc(-c3cccnc3Nc3cccc(C(=O)Nc4ccc(Oc5ccccc5)cc4)c3)n2)cc(OC)c1OC

clearance [1]: 21.6 mL/min/kg | IC50 [2]: 675 nM
SMILES: CNc1nccc(-c2cccnc2Oc2cc(C(=O)Nc3cc(C(F)(F)F)ccc3N3CCCCC3)ccc2Cl)n1

clearance [1]: 58.2 mL/min/kg | IC50 [2]: 70 nM
SMILES: CNc1nccc(-c2cccnc2Oc2cc(C(=O)Nc3cc(C4CCCCC4)ccc3OC)ccc2C)n1

IC50 [4]: 504 nM | solubility [41]: 1 µg/mL (≈ 2.23 µM) | IC50 [2]: 177 nM
SMILES: Cc1ccc(C(=O)Nc2ccc(C(F)(F)F)cc2)cc1Nc1ncccc1-c1ccncn1
